Like-named read-outs stand apart in the source and are kept apart here.
What was measured:
Tau = test: Binding of cofilin to Tau (HSQC); design: species or system human; details: 15N-Tau/F-actin 1:1.5, 10-fold excess of cofilin
Method: In order to gain insight into how Tau regulates the polymerization and structure of F-actin, we sought to obtain information about the Tau-binding site on F-actin. […] One of these binding partners is cofilin, a 21 kDa eukaryotic protein, which binds to F-actin with a K d < 0.05 µM[33] and results in disassembly of F-actin[34], [35]. […] To test if the binding site of Tau on F-actin overlaps with that of cofilin, we added a 10-fold excess of cofilin to a solution containing ^15N-labeled Tau and 1.5-fold excess (with respect to Tau) of F-actin. For the resulting mixture, a ^1H-^15N HSQC spectrum was recorded. […] Subsequently, we repeated the actin/Tau co-sedimentation assay in the presence of cofilin.
Human Tau (2N4R) was expressed in the E. coli strain BL21 (DE3) (MERCK Millipore) using the vector pNG2 as described. The bacterial pellet was resuspended in lysis buffer (50 mM Mes, 500 mM NaCl, 1 mM MgCl2, 1 mM EGTA, 5 mM DTT, pH 6.8) and supplemented with a protease inhibitor mixture. Cells were disrupted using a French pressure cell and subsequently boiled for 20 min. […]
For HSQC-based competition experiments, 20 μM of ^15N-labeled Tau were mixed with 30 μM F-actin in NMR buffer supplemented with 0.2 mM ATP and 0.2 mM CaCl2 (sample 2). […] Competition was monitored by reading out the variation in signal broadening in 2D ^1H-^15N HSQC spectra of Tau.

F-actin [1] = test: Protein co-sedimentation / actin bundling (differential centrifugation, SDS gel); assay type: biochemical, human; details: molar ratio 1.5:1:10
F-actin [2] = details: read-out: Kd of cofilin for F-actin; cited from earlier work
Method: In order to gain insight into how Tau regulates the polymerization and structure of F-actin, we sought to obtain information about the Tau-binding site on F-actin. […] One of these binding partners is cofilin, a 21 kDa eukaryotic protein, which binds to F-actin with a K d < 0.05 µM[33] and results in disassembly of F-actin[34], [35].

NBD-labeled F-actin = target: T1, NBD-labeled F-actin (Oryctolagus cuniculus, UniProt P68135); test: F-actin binding assay (NBD fluorescence change); details: 25 °C
T1 construct: NBD-conjugated actin from α-skeletal muscle was bought from Hypermol; purchased Hypermol (Bielefeld, Germany); host or cells: α-skeletal muscle (tissue-derived (so in the source))
Method: In order to gain insight into the affinity of the Tau/F-actin-interaction, the change in fluorescence of 7-chloro-4-nitrobenz-2-oxa-1,3-diazole (NBD)-labeled F-actin upon addition of Tau was followed[31]. 0.2 μM of NBD-labeled and phalloidin-stabilized F-actin were mixed with increasing amounts of Tau (Fig. 1d and Supplementary Fig. 1).
NBD-conjugated actin from α-skeletal muscle was bought from Hypermol (Bielefeld, Germany). In this experiment, 7-chloro-4-nitrobenz-2-oxa-1,3-diazole (NBD)-labeled G-actin was polymerized starting from 0.4 mg ml^−1 of the conjugated actin supplemented with 10-fold excess of phalloidin (catalog no. P2141, Sigma-Aldrich) to provide stable filaments. […] The change of fluorescence intensity from NBD was followed in a Cary Eclipse fluorescence spectrophotometer (Agilent Technologies, Inc.). […] As reported by Hertzog, M. et al.[31] the normalized decrease in fluorescence (equation 1) was analyzed and fitted by using equation 2.1 E=F-F0/Fmax-F0 2 E=1/2C+1/2Z-1/2C+Z^2-4Z with Z=[partner]/[F-actin]andC=1+Kd/[F-actin]
Affinity of Tau and Tau fragments for binding to NBD-labeled F-actin. (a) Change of NBD fluorescence upon addition of increasing concentrations of Tau and Tau fragments. […]
(b) Bar diagram showing Kd values, which were determined based on the quenching effect of Tau/Tau fragments on the fluorescent properties of NBD-labeled F-actin. […]

F-actin [3] = test: Protein co-sedimentation / actin bundling (differential centrifugation, SDS gel); assay type: biochemical, human; details: for bundling of F-actin: co-sedimentation, F-actin with Tau (1:1) or Tau peptides (1:10, Tau(254–268) 1:30), room temperature 30 min
Method: The ability of Tau to bundle F-actin was studied using electron microscopy (EM). […] Next, Tau/F-actin co-sedimentation was performed. The same sample, which was used for EM, was exposed to two sequential steps of centrifugation, in which single-actin filaments and actin bundles were collected separately. Subsequently, aliquots from supernatant (SN), filament (PF), and bundle (PB) fractions were loaded in a 4–20% gradient gel (Fig. 1c).
(§1) The sample was then dialyzed against General Actin Buffer (GAB; 5 mM TrisHCl pH 8.0, 0.2 mM CaCl2, 0.2 mM ATP, 0.5 mM DTT) or NMR buffer (50 mM NaH2PO4/Na2HPO4 pH 6.8, 10 mM NaCl, 1 mM DTT, 10% (v/v) D2O) to be used for electron microscopy or NMR experiments, respectively. In case of actin, lyophilized actin was reconstituted to 10 mg ml^−1 by adding 100 μl of distilled water to be in the following buffer: GAB with 5% (w/v) sucrose and 1% (w/v) dextran. Subsequently, the sample was spun at 18,400 × g for 15 min, the supernatant was kept, and actin was polymerized by incubating 0.4 mg ml^−1 G-actin in GAB and supplemented with polymerization buffer (1/10th the volume; 100 mM Tris HCl pH 7.5, 20 mM MgCl2, 500 mM KCl, 10 mM ATP) for 1 h at room temperature. Afterwards, the sample was centrifuged at 100,000 × g during 1 h at 4 °C. Filaments were collected at the bottom of the ultracentrifuge tube. The pellet was then resuspended in GAB or NMR Buffer as required.
Mixtures of F-actin with Tau (1:1) or Tau peptides (1:10 molar ratio) were incubated at room temperature for 30 min. In case of the shorter peptide Tau(254–268), a 1:30 ratio was used. Centrifugation was performed in two steps. First, a spin rate of 5000 × g was used during 15 min to collect bundles of F-actin (PB) at the bottom of the tube. Secondly, the remaining sample was centrifuged at 100,000 × g during 1 h collecting actin filaments (PF). The final supernatant (SN) was also kept for later usage. Pellets were resuspended in 80 μl of GAB. A volume of 25 μl of sample were taken for EM while the remaining 55 μl were loaded in a 4–20% gradient SDS gel, which was colored with […] and denatured with SDS and heat.

F-actin [4] = test: Saturation transfer difference (STD) NMR with F-actin; assay type: binding, human; details: compared with wild-type Tau(254–290)
Method: We therefore prepared a mutant version of Tau(254–290), in which L266 was replaced by a glutamate, i.e., Tau(254–290)-L266E. We then used saturation transfer difference (STD)[49] experiments to probe the influence of the mutation on binding of Tau(254–290) to F-actin.
as §1

F-actin [5] = test: Transfer NOE (2D NOESY) of Tau peptides with F-actin; assay type: binding, human; details: 27 μM F-actin, 800 μM peptide, NMR buffer pH 6.8 with 0.2 mM ATP and 0.2 mM CaCl2, 278 K
Description: Instead, short hydrophobic Tau segments, which are separated from each other by flexible residues, bind dynamically to actin’s hydrophobic pocket (Fig. 2). […] NMR Nuclear overhauser effect (NOE) measurements that are sensitive for three-dimensional structure were subsequently performed. […] This approach is called transfer NOE and has been widely used to determine the structure of small ligands in complex with high molecular weight binding partners.
Two-dimensional NOESY experiments with five different mixing times ranging from 50 up to 250 ms were recorded for Tau(254–290) in the presence of F-actin. […] The NOE peaks, which were observed only in the presence of F-actin, provide experimental restraints for the structure of Tau(254–290) in complex with F-actin.
as §1
NMR spectra were acquired on Bruker Avance800 and 900 MHz NMR spectrometers at 278 K to reduce solvent exchange. 2D ^1H-^15N HSQC spectra consisted of 64 scans, spectral windows of 12 ppm in the proton and 25 ppm in the nitrogen dimension. 2D NOESY experiments were acquired using 88 scans, 12 ppm spectral width and a time domain of 512 and 2048 points in the first and second dimension, respectively. To generate buildup curves, mixing times of 50, 80, 100, 150, and 250 ms were used.
For NOESY experiments, 27 μM of F-actin were mixed with 800 μM of Tau peptide in NMR buffer supplemented with 0.2 mM ATP and 0.2 mM CaCl2. A reference experiment was performed in similar conditions only with 800 μM peptide. For resonance assignment, a 2D TOCSY experiment with a mixing time of 75 ms was performed. All data were processed using NMRPipe[76] and analyzed using Sparky[77].

F-actin [6] = test: Electron microscopy of actin bundles; assay type: biochemical, human; details: uranyl acetate stain, room temperature
Method: The ability of Tau to bundle F-actin was studied using electron microscopy (EM). The diameter of single actin filaments was approximately 7 nm, in agreement with previous studies, [30]. […] Actin bundles ranged between 20 and 150 nm in diameter. Next, Tau/F-actin co-sedimentation was performed. The same sample, which was used for EM, was exposed to two sequential steps of centrifugation, in which single-actin filaments and actin bundles were collected separately. Subsequently, aliquots from supernatant (SN), filament (PF), and bundle (PB) fractions were loaded in a 4–20% gradient gel (Fig. 1c). […] In addition, ~8% of Tau molecules were bound to single filaments, while ~29% of Tau was found together with actin bundles.
The sample was then dialyzed against General Actin Buffer (GAB; 5 mM TrisHCl pH 8.0, 0.2 mM CaCl2, 0.2 mM ATP, 0.5 mM DTT) or NMR buffer (50 mM NaH2PO4/Na2HPO4 pH 6.8, 10 mM NaCl, 1 mM DTT, 10% (v/v) D2O) to be used for electron microscopy or NMR experiments, respectively. […]
Samples were bound to a glow discharged carbon foil covered copper grid. […] The samples were evaluated at room temperature using a CM 120 transmission electron microscope (FEI, Eindhoven, and The Netherlands) and a TemCam F416 CMOS camera (TVIPS, Gauting, Germany).

F-actin [7] = test: Titration of F-actin into 15N-Tau, two-state Bloch-McConnell fit (peer review file); assay type: binding, human; details: grid-search pushed to the edge of the parameter space, fits were not good
Description: (4 pictures or pasted objects on this page, not shown here)

F-actin [8] = details: phosphate buffer; read-out: Kd of Tau/F-actin, previously reported; cited from earlier work
Method: 0.2 μM of NBD-labeled and phalloidin-stabilized F-actin were mixed with increasing amounts of Tau (Fig. 1d and Supplementary Fig. 1). […] Other stoichiometries, however, cannot be excluded. The derived dissociation constant is lower than a previously reported value of 241 ± 43 nM[7] ...

Substance: cofilin: human cofilin (catalog no. CF01, Cytoskeleton, Inc.), 21 kDa eukaryotic actin-binding protein
- binding of cofilin to Tau (Tau): does not bind to Tau
- disassembly of actin filaments by cofilin (F-actin [1]; F-actin + Tau + cofilin): actin filaments were not disassembled by cofilin
- effect of cofilin on Tau co-sedimentation with F-actin (F-actin [1]): decreased the amount of Tau that co-sedimented with F-actin
- Kd (F-actin [2]): < 50 nM

Substance: Tau(254–290)-L266E: mutant version of Tau(254–290), in which L266 was replaced by a glutamate (Ac-KNVKSKIGSTENEKHQPGGGKVQIINKKLDLSNVQSK-NH2)
- affinity for F-actin relative to parent (in words) (NBD-labeled F-actin; NBD-labeled F-actin, GAB, values only in Supplementary Fig. 1b bar diagram): decrease in affinity
- bundling of F-actin (F-actin [3]): less efficient in promoting F-actin bundling
- STD signal relative to wild-type peptide (F-actin [4]): decreased STD signal
- transfer NOE cross-peaks in presence of F-actin (F-actin [5]): no additional cross-peaks were observed

Substance: Tau(254–268): contains the residues which form the helix in the N-terminal half of Tau(254–290) (Ac-KNVKSKIGSTENLKH-NH2)
- bundling of F-actin (F-actin [3]): not able to bundle F-actin
- transfer NOE cross-peaks in presence of F-actin (F-actin [5]): folds into an α-helix (residues 259–265) in complex with F-actin

Substance: Tau(254–284): Tau peptide, residues 254–284
- bundling of F-actin (F-actin [3]): promoted actin bundles

Substance: Tau(254–290): synthetic Tau peptide, acetyl and amide protection groups at the N- and C terminus
- bundling of F-actin (electron microscopy) (F-actin [6]): bundles filaments
- transfer NOE cross-peaks in presence of F-actin (F-actin [5]): additional NOE cross-peaks were observed

Substance: Tau(292–319): Tau peptide comprising the residues of repeat R2 and R3
- bundling of F-actin (F-actin [3]): promotes bundling of actin filaments
- transfer NOE cross-peaks in presence of F-actin (F-actin [5]): revealed NOEs specific for the Tau(292–319)/F-actin complex

Substance: Tau: full-length human Tau (2N4R), expressed in E. coli
- Kd (NBD-labeled F-actin; NBD-labeled, phalloidin-stabilized F-actin (α-skeletal muscle actin), 0.2 μM (Results) / 0.25 µM (Methods) F-actin, GAB (5 mM TrisHCl pH 8.0, 0.2 mM CaCl2, 0.2 mM ATP, 0.5 mM DTT), single-binding site fit, s.d. from three experiments, read-out: dissociation constant (Kd) of Tau or Tau fragment for F-actin): 60 ± 10 nM
- Tau found together with actin bundles (PB) (F-actin [3]; F-actin:Tau 1:1, room temperature 30 min, pellet of 5000 × g, 15 min): ~ 29%
- Tau bound to single filaments (PF) (F-actin [3]; F-actin:Tau 1:1, room temperature 30 min, pellet of 100,000 × g, 1 h): ~ 8%
- Tau remaining in supernatant (SN) (F-actin [3]; F-actin:Tau 1:1, room temperature 30 min, quantification of gel band intensity, supernatant after 100,000 × g): ~ 63%
- bundling of F-actin (F-actin [3]): bundles actin filaments
- bundling of F-actin (electron microscopy) (F-actin [6]): caused bundling of F-actin
- kon, local two-state NMR fit (residues I260, L266, G287/V287) (F-actin [7]): ~10^7 M-1s-1
- Kd (F-actin [8]): 241 ± 43 nM

Substance: K18: artificial fragment of Tau which comprises all four repeats (residues Gln244–Glu372 plus initial Met243)
- bundling of F-actin (F-actin [3]): capable of bundling F-actin

From publication PMC5719408, “Multivalent cross-linking of actin filaments and microtubules through the microtubule-associated protein Tau” (Nature Communications, 2017)
